Assay results from paper PMC5487684, “Safety, Pharmacokinetics, and Antiviral Activity of a Novel HIV Antiviral, ABX464, in Treatment-Naive HIV-Infected Subjects in a Phase 2 Randomized, Controlled Study” (Antimicrobial Agents and Chemotherapy, 2017).
Entries after “also recorded” stand apart in the source; their conditions may differ.

How the values were obtained:
HIV [1] = assay: HIV viral load (HIV-1 RNA copies per milliliter) in treatment-naive HIV-infected patients; format: in vivo
Description: Safety assessments and laboratory tests were carried out according to the schedules described in Table S4 for groups dosed every day, every 3 days, and 3 times a day. Follow-up visits were scheduled for 7 days after the last dose and subsequently once every week in order to assess the elimination of the main ABX464 metabolite and to assess the viral load. Follow-up visits were terminated when the virus load was within 0.5 log of the baseline value or after 3 follow-up visits, whichever came first. Prior to the statistical analyses, AEs were coded using the Medical Dictionary for Regulatory Activities (MedDRA dictionary; last available version) in order to be tabulated by system organ class (SOC) and preferred term (PT). The AEs were analyzed according to the treatment emergence phase from the first study drug administration on day 1 up to 48 h after the last study drug administration. The number and percentage of subjects with at least one TEAE were tabulated by SOC and PT for each group and dose. The number of occurrences of TEAEs was also analyzed in the same way by SOC and PT for each group and dose, by grade of severity for each group and dose, and by level of causality to the study drug for each group and dose.
(§1) Plasma samples were analyzed for ABX464 and ABX464-NGlc using validated bioanalytical methods by Atlanbio (Saint Nazaire, France) according to good laboratory practices. Pharmacokinetic parameters were calculated by noncompartmental analysis (NCA), using Phoenix WinNonlin software (Pharsight Corporation) running on a personal computer. On day 1, the following PK parameters were generated: Cmax, the time to Cmax (Tmax), lag time (tlag), elimination rate constant (kel), area under the concentration-time curve (AUC) from time zero to time t (AUC0–t), AUC from time zero to infinity (AUC0–∞), apparent clearance (CL/F), and apparent volume of distribution (V/F). On the other days of PK assessment, only Cmax, Tmax, tlag, kel, and AUC0–t were generated. The secondary analysis concerned pharmacodynamic (PD) activity, as expressed by CD4 and CD8 levels and viral load across time. The HIV viral load was analyzed in the prequalified individual local study center laboratories. CD4 and CD8 cell counts were also determined in the local study center laboratories. With respect to the viral load, changes in the log-transformed viral load values between 24 h postdose and predose were calculated on each day, and a comparison between each dose level and pooled placebo data was made. Moreover, the rate of success (defined as a decrease in the viral load value of at least 0.5 log) was evaluated for each treatment (including placebo) and compared between treatments.
No formal sample size determination was done. The aim of the study was to obtain reliable and consistent data and to expose a limited number of subjects to ABX464. To achieve this aim, six subjects per group received ABX464. A mixed model analysis of covariance of the changes in the viral load compared to that at the baseline was conducted on log-transformed values. Baseline parameters and age were covariates, treatment groups were fixed effects, and subjects were random effects.

CD4 and CD8 cell counts = CD4 and CD8 cell counts in HIV-infected subjects; format: in vivo, human
Description: as §1, with “The secondary analysis concerned pharmacodynamic (PD) activity, as expressed by CD4 and CD8 levels and viral load across time.” left out

[2] = cited from earlier work
HIV [3] = tested on: HIV; set-up: method as in PMID 25889234; conditions: cited from earlier work
HIV replication in PBMCs = tested on: HIV replication in PBMCs; set-up: method as in PMID 25889234; conditions: in vitro; cited from earlier work
[4] = tested on: HIV replication in macrophages; set-up: method as in PMID 25889234; conditions: in vitro; cited from earlier work
HIV [5] = tested on: HIV; set-up: method as in PMID 25889234; conditions: human PBMCs, treatment for at least 24 weeks; cited from earlier work
healthy subjects = conditions: cited from earlier work
[6] = Non-infected, single oral 50mg (fasted), N 17
[7] = Non-infected, single oral 50mg (fasted), N 23

Compound: FC(F)(F)Oc1ccc(Nc2ccc3cccc(Cl)c3n2)cc1 [ABX464]
- Change in log10 no. of RNA copies/ml from that at the baseline (HIV [1]; Group 7 (150 mg every 3 days, fed), subject 908, day 20): −0.59 log10 no. of RNA copies/ml
- Change in log10 no. of RNA copies/ml from that at the baseline (HIV [1]; Group 8 (150 mg q.d., fed), subject 1001, day 10): −0.5 log10 no. of RNA copies/ml
- Change in log10 no. of RNA copies/ml from that at the baseline (HIV [1]; Group 8 (150 mg q.d., fed), subject 1001, day 11): −0.62 log10 no. of RNA copies/ml
- Change in log10 no. of RNA copies/ml from that at the baseline (HIV [1]; Group 8 (150 mg q.d., fed), subject 1001, day 14): −0.72 log10 no. of RNA copies/ml
- Change in log10 no. of RNA copies/ml from that at the baseline (HIV [1]; Group 8 (150 mg q.d., fed), subject 1001, day 15): −0.68 log10 no. of RNA copies/ml
- Change in log10 no. of RNA copies/ml from that at the baseline (HIV [1]; Group 8 (150 mg q.d., fed), subject 1004, day 10): −0.5 log10 no. of RNA copies/ml
- Change in log10 no. of RNA copies/ml from that at the baseline (HIV [1]; Group 8 (150 mg q.d., fed), subject 1004, day 14): −0.51 log10 no. of RNA copies/ml
- Change in log10 no. of RNA copies/ml from that at the baseline (HIV [1]; Group 8 (150 mg q.d., fed), subject 1004, day 15): −0.51 log10 no. of RNA copies/ml
- Change in log10 no. of RNA copies/ml from that at the baseline (HIV [1]; Group 8 (150 mg q.d., fed), subject 1005, day 7): −0.53 log10 no. of RNA copies/ml
- Change in log10 no. of RNA copies/ml from that at the baseline (HIV [1]; Group 8 (150 mg q.d., fed), subject 1005, day 11): −0.52 log10 no. of RNA copies/ml
- Change in log10 no. of RNA copies/ml from that at the baseline (HIV [1]; Group 8 (150 mg q.d., fed), subject 1008, day 8): −0.59 log10 no. of RNA copies/ml
- Change in log10 no. of RNA copies/ml from that at the baseline (HIV [1]; Group 8 (150 mg q.d., fed), subject 1008, day 10): −0.57 log10 no. of RNA copies/ml
- Change in log10 no. of RNA copies/ml from that at the baseline (HIV [1]; Group 8 (150 mg q.d., fed), subject 1008, day 11): −0.56 log10 no. of RNA copies/ml
- Change in log10 no. of RNA copies/ml from that at the baseline (HIV [1]; Group 8 (150 mg q.d., fed), subject 1008, day 14): −0.53 log10 no. of RNA copies/ml
- Mean changes in the viral load vs placebo group (HIV [1]; any time point over the 14-day study period, all treatment groups): No statistically significant differences
- Subjects with a decrease of ≥0.5 log10 in HIV RNA load (HIV [1]; group 1, 25 mg every 3 days, fasted): 3 subjects
- Subjects with a decrease of ≥0.5 log10 in HIV RNA load (HIV [1]; group 2, 25 mg q.d., fasted): 1 subjects
- Subjects with a decrease of ≥0.5 log10 in HIV RNA load (HIV [1]; group 4, 50 mg t.i.d., fed): 2 subjects
- Subjects with a decrease of ≥0.5 log10 in HIV RNA load (HIV [1]; group 5, 75 mg q.d., fed): 1 subjects
- Subjects with a decrease of ≥0.5 log10 in HIV RNA load (HIV [1]; group 6, 100 mg q.d., fasted): 2 subjects
- Subjects with a decrease of ≥0.5 log10 in HIV RNA load (HIV [1]; group 7, 150 mg every 3 days, fed): 1 subjects
- Subjects with a decrease of ≥0.5 log10 in HIV RNA load (HIV [1]; group 8, 150 mg q.d. for 2 weeks, fed (6 treated)): 4 subjects
- CD4 profile (CD4 and CD8 cell counts; each ABX464 dose): no trend associated with product use or dose
- Mean changes in the CD8 cell counts from baseline (CD4 and CD8 cell counts; human, in vivo): did not show any particular trend
- AUC0-∞, GM [2, 6]: 43.93 ng·h/mL
- AUC0-∞, Mean [2, 6]: 51.74 ng·h/mL
- t1/2, GM [2, 6]: 49.8 min
- t1/2, Mean [2, 6]: 52.8 min
- Cmax, GM [2, 7]: 13.70 ng/mL
- Cmax, Mean [2, 7]: 17.70 ng/mL
- tmax, Mean [2, 7]: 90 min
- Metabolism in human subjects ([2]; healthy subjects, single ascending oral dose): rapidly and substantially metabolized into ABX464-N-glucuronide
- Virus replication in two humanized mouse models of HIV infection (HIV [3]): substantially reduced virus replication
- Mice with an undetectable viral load (HIV [3]; humanized mice, after 2 to 3 weeks of treatment): 30%
- Virus rebound after termination of therapy (HIV [3]; vs cART-treated control animals, over 6 weeks after treatment termination): substantially lower virus rebound
- Antiviral effect on HIV replication in PBMCs (HIV replication in PBMCs): can inhibit HIV replication
- Inhibition of HIV replication in macrophage culture [4]: can inhibit HIV replication
- Development of drug resistance in vitro (HIV [5]): no development of resistance-inducing mutations; also recorded: did not induce any drug resistance
- Tolerability in healthy volunteers, food effect and repeated dosing study (healthy subjects): good tolerability profile
- Tolerability in healthy subjects, first-in-human study (healthy subjects; single ascending oral dose, up to 150 mg): very well tolerated; also recorded: well tolerated
